Several values for one entry are separate records, joined by “and”; a condition that tells them apart may be missing. Equal entries are not always repeated. Activity calls are given as the source filed them. The rule behind the calls is not given here.
The compounds below were run against Perilipin-5 (Homo sapiens) + 1-acylglycerol-3-phosphate O-acyltransferase ABHD5 (Homo sapiens) (UniProt Q00G26+Q8WTS1) (assay: blockers of ABHD5 binding to perilipin-5 – biochemical, luminescence, dose response (AID 651677)). Conditions: ABHD5-PLIN5 interaction.
Sequence of Perilipin-5 (Homo sapiens) + 1-acylglycerol-3-phosphate O-acyltransferase ABHD5 (Homo sapiens) (Q00G26 whole entry, looked up): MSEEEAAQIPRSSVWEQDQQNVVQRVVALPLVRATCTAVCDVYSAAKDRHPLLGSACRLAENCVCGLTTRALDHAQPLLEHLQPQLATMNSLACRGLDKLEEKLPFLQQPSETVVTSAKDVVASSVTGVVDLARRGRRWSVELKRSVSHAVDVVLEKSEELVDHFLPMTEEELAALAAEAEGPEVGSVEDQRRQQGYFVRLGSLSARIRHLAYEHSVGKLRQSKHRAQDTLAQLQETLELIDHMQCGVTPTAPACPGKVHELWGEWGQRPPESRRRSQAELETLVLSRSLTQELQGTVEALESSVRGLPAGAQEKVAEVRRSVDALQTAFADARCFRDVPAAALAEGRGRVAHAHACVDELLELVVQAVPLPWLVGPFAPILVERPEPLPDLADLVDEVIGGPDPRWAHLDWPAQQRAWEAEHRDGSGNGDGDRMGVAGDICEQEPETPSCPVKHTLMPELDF
Sequence of Perilipin-5 (Homo sapiens) + 1-acylglycerol-3-phosphate O-acyltransferase ABHD5 (Homo sapiens) (Q8WTS1 whole entry, looked up): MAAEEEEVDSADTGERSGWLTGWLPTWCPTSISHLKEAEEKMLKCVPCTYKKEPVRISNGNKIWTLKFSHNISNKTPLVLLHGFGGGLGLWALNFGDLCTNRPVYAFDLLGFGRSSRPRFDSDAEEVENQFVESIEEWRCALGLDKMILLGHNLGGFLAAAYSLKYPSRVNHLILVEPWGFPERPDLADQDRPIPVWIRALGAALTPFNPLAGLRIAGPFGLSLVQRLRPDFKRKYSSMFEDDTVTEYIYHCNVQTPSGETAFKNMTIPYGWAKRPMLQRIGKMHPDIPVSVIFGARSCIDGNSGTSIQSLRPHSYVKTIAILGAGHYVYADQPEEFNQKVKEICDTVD
Work on `CN(C)CCN(Cc1ccco1)c1ccccn1` yielded an IC50 of 7750 nM.
For `CC(C)(C)NC(=O)C(c1ccc(C(F)(F)F)cc1)n1c(=O)c(-c2ccco2)nc2ccccc21` (stereo unspecified), the IC50 was 1330 nM.
For `CC1Sc2ccc(S(=O)(=O)N3CCC(C(=O)NCc4ccc(Cl)cc4)CC3)cc2NC1=O` (stereo unspecified), the IC50 was “inactive”.
Compound `CN1C(=O)/C(=C/C=C/c2ccco2)C(=O)NC1=S` has an IC50 of 2960 nM.
With `COc1ccccc1/C=C/C(=O)c1ccccc1` the IC50 was 6630 nM.
Work on `O=C(/C=C/Sc1ccccc1)c1ccc(Cl)cc1` yielded an IC50 of 3380 nM.
Compound `O=C(NC1CCCCC1)C(c1ccc(-c2ccccc2)cc1)n1c(=O)c(-c2ccco2)nc2ccccc21` (stereo unspecified) has an IC50 of 1540 nM.
For `CCN1/C(=C/C=C/c2oc3ccc(-c4ccccc4)cc3[n+]2CC)Oc2ccc(-c3ccccc3)cc21`, the IC50 was 1030 nM.
`FC(F)(F)c1cccc(NC(=S)N(CCCN2CCCC2)Cc2cccn2Cc2ccc(Cl)cc2)c1` was tested, and the IC50 was “inactive”.
`CC1(C)C2CCC(CN=C(N)CSS(=O)(=O)O)C1C2` (stereo unspecified) showed an IC50 of 4270 nM.
In the case of `O=CC1=C(c2ccccc2)Oc2ccccc2O1`, the IC50 is reported as 3520 nM.
`O=C(NCc1ccccc1)C(c1cccc2ccccc12)n1c(=O)c(-c2ccco2)nc2ccccc21` (stereo unspecified) was tested, and the IC50 was 2220 nM.
In the case of `Cc1ccc(S(=O)(=O)N2C[C@H]3n4c(=O)ccc(=O)n4C[C@H](OC(=O)Nc4cccs4)[C@@]3(O)C2)cc1`, the IC50 is reported as 7930 nM.
In the case of `N#Cc1ncc(Cc2ccccc2)nc1C#N`, the IC50 is reported as 8580 nM.
`CCN(CC)CCN(CC(=O)Nc1c(C)cc(C)cc1C)C(=O)c1ccccc1` gave an IC50 of 9740 nM.
Work on `CC(C)(C)NC(=O)C(c1ccccc1)n1c(=O)c(-c2ccco2)nc2ccccc21` (stereo unspecified) yielded an IC50 of 2160 nM.
Work on `CC1=CC2C(C(O)CC3(C)C2CC(C)C32OCOC23COCO3)C2(C)C/C(=C\O)C(=O)C=C12` (stereo unspecified) yielded an IC50 of 3270 nM.
For `O=C(NCc1ccccc1)C(c1cc2ccccc2o1)n1c(=O)c(-c2ccco2)nc2ccccc21` (stereo unspecified), the IC50 was 2420 nM.
`O=C(NC1CCCCC1)C(c1ccc(C(F)(F)F)cc1)n1c(=O)c(-c2ccco2)nc2ccccc21` (stereo unspecified) showed an IC50 of 1250 nM.
`CCCCNC(=O)Nc1ccc2c(c1)N(C)C(=O)c1ccccc1S2` gave an IC50 of 4080 nM.
For `COc1ccccc1C=CC(=O)C=Cc1ccccc1OC`, the IC50 was 4790 nM.
For `CCSc1nnc(NC(=O)c2nc(S(=O)(=O)Cc3ccc(F)cc3)ncc2Cl)s1`, the IC50 was 2360 nM.
For `COc1ccc(C(C(=O)NC(C)(C)C)n2c(=O)c(-c3ccco3)nc3ccccc32)cc1` (stereo unspecified), the IC50 was 1690 nM.
With `O=C(NCc1ccccc1)C(c1ccc(-c2ccccc2)cc1)n1c(=O)c(-c2ccco2)nc2ccccc21` (stereo unspecified) the IC50 was 2700 nM.
`Cc1ccc(CC2(OCCN(C)C)CCC(C(C)(C)C)CC2)cc1` (stereo unspecified) gave an IC50 of 8610 nM.
Compound `N#Cc1ccc(C(C(=O)NCc2ccccc2)n2c(=O)c(-c3ccco3)nc3ccccc32)cc1` (stereo unspecified) has an IC50 of 1560 nM.
With `COc1cc2c(cc1OC)C(C)N(CCc1ccc(Cl)cc1)CC2` (stereo unspecified) the IC50 was “inactive”.
For `Cc1ccc(CS(=O)(=O)c2ncc(Cl)c(C(=O)Nc3nnc(C(C)C)s3)n2)cc1`, the IC50 was 1380 nM.
For `CCOC(=O)c1c(C)oc2c1c(CN1CCN(CCO)CC1)c(O)c1ccccc12`, the IC50 was 1810 nM.
`O=C(NCc1ccccc1)C(c1ccc(C(F)(F)F)cc1)n1c(=O)c(-c2ccco2)nc2ccccc21` (stereo unspecified) gave an IC50 of 1310 nM.
`COc1ccccc1-c1cc(C(=O)NC2CCN(C)CC2)c2ccc(Cl)c(C)c2n1` gave an IC50 of 7180 nM.
`Cc1cc(C)c(NC(=O)CN2CCN3CCCC3C2)c(C)c1` (stereo unspecified) was tested, and the IC50 was 9270 nM.
For `C=C1C(=O)O[C@H]2C[C@H]1[C@@H](OC(C)=O)C/C(C)=C/CC/C(C)=C\CC[C@]2(C)O`, the IC50 was 1910 nM.
`NC(=NCCCCCCN=C(N)/N=C(\N)Nc1ccc(Cl)cc1)/N=C(\N)Nc1ccc(Cl)cc1` was tested, and the IC50 was 3820 nM and 1660 nM.
For `O=C(Cn1c(=O)n(Cc2ccco2)c(=O)c2c3c(sc21)CCCC3)Nc1ccccc1`, the IC50 was “inactive”.
`CC1=CC(C)(C)Nc2ccc(OC(=O)CN3C(=O)c4cccc5cccc(c45)C3=O)cc21` was tested, and the IC50 was 6890 nM.

Reference: PubChem BioAssay AID651677 (The Scripps Research Institute Molecular Screening Center, 2012)
